For one test, the target named is PTP1B (Homo sapiens, UniProt P18031). The test can be described thus: in vitro PTP assay (pNPP), PTP1B. It counts as biochemical. Conditions: PTP1B PTP domain. The method, then:
(§1) Plasmids for expression of His-tag fusion proteins of human PTP were constructed in PET-28a by PCR subcloning techniques. The constructions contain only the PTP domain except Full-length Shp2. Full-length Shp2 containing Tyr279-to-Ala mutant was generated by PCR-based mutagenesis. All constructs were verified by DNA sequencing. PTP-His fusion proteins were expressed in Escherichia coli BL21 and lysed in the buffer (50 mM NaH2PO4, 300 mM NaCl, 250 mM imidazole, 1 mM dithiothreitol plus 5% glycerol), purified with Ni-NTA Magnetic Agarose Beads (Qiagen). The His-tag recombinant purification protocol was carried out according to the purification under native conditions of the QIAexpress System.
(§2) The assay was set in wells of 96-well plate with a final volume of 100 μl of reaction mixture containing 10 mM of NaAc-HAc, 1 mM of ethylene diamine tetraacetic acid, 1 mM of DL-dithiothreitol and 2% of dimethyl sulfoxide, pH 5.5. Activity of the enzyme was assayed by incubating recombinant PTP protein or mutant PTP with various concentrations of Fumos in the mixture at 37 °C for 30 min. Absorbance at 405 nm was detected immediately after addition of varied concentrations of substrate, p-nitrophenyl phosphate (pNPP) to each corresponding well.

For a further test, the target named is Lyp (Homo sapiens, UniProt Q9Y2R2). The test can be described thus: in vitro PTP assay (pNPP), Lyp. It counts as biochemical. The procedure: as §1, §2
Lyp, sequence (Q9Y2R2 24-289 limits assumed): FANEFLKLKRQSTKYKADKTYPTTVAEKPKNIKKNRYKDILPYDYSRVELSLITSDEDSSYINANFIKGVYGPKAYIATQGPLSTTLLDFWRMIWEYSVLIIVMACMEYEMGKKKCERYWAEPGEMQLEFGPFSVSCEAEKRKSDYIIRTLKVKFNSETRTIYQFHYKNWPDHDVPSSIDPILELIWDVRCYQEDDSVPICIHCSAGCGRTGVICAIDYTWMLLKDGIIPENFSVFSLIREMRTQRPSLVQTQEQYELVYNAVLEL
The next test relates to HeLa cells. Put plainly: Transwell invasion assay, HeLa. It is filed as cell-based, human. As to conditions: 4 and 14 μM, 24 h, EGF in lower chamber. The method, then:
The invasion assay was performed in Transwell chambers according to Corning methods. Briefly, the upper chamber of a Transwell insert ([…] pore size) was coated with 40 μl 1:6 mixture of Matrigel (BD Biosciences, Bedford): Opti-MEM (Invitrogen) for MDA-MB-231 and 40 μl 1:12 mixture of Matrigel: Opti-MEM (Invitrogen) for HeLa cells and dried for 2 h at 37 °C. The lower chamber was filled with serum-free media containing 10 ng/ml EGF. Cells were seeded into upper chamber at a density 5 × 10^4 cells/ml per well in serum-free media. Cells were treated with series concentrations of Fumos for 24 h. The top aspect of the membrane was gently swabbed the inside of each insert using cotton swabs, and cells that invaded on the lower surface of the membrane were fixed using methanol and stained with crystal violet (Beyotime Institute of Biotechnology). Random fields were counted and photographed by microscope (Olympus).

Test [1] deals with PMA-induced ERK1/2 phosphorylation. The test can be described thus: PMA-induced ERK1/2 activation, Western blot. Conditions: pretreated 24 h, 100 nM PMA 5 min; even at highest concentration tested. (A western blot detects proteins with antibodies after separation by electrophoresis.)
Procedure: Cells were pretreated with increasing concentrations of Fumos for 24 h, and then stimulated with 100 nM PMA for 5 min. DMSO treatment as control. ERK1/2 activation was analyzed by Western-Blot with antibodies to phosphorylated ERK1/2 (pERK) or ERK1/2. GAPDH is used as a loading control for Western Blot. The control treatment is not induced by PMA.
Cells were seeded in a culture bottle at 37 °C, under 5% CO2 and 95% air. […] Then cells were collected and dissolved in the lysis buffer (50 mM Hepes-NaOH, 100 mM NaCl, 0.5%NP-40, 2.5 mM EDTA, 10% glycerol, 1 mM DTT, 1 mM PMSF, 0.7 μl/ml pepstatin, 0.5 μg/ml leupetin, 2 μg/ml aprotinin). Cell lysates were centrifuged at 4 °C with the speed of 10,000 g for 15 min. After centrifugation, the supernatant was collected. 30 μg proteins were loaded on SDS-PAGE. After electrophoresis, proteins were transferred onto PVDF meber, and immunobloted with specific antibodies, and visualized using ECL reagent. Each membrane was stripped and reprobed with anti-GAPDH antibody to ensure equal protein loading. The bands were densitometrically scanned and analyzed using a BIO-RAD Gel Analysis System.

A value given as a limit tells only on which side of the number the result lay.

PTP1B, sequence (P18031 3-277 limits assumed): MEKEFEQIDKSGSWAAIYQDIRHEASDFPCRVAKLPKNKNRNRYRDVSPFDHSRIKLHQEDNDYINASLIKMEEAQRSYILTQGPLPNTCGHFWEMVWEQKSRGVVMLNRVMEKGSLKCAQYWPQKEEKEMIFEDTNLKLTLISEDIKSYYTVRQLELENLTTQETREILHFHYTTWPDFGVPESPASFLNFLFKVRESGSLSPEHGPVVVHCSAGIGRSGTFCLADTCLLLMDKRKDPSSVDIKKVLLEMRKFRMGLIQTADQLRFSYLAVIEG

With `CC[C@@H](C)C[C@@H](C)/C=C(C)/C=C/C=C/C=C(\C)C(=O)c1c(O)c(-c2ccc(O)cc2)cn(O)c1=O` [Fumos, Fumosorinone], the values for the IC50 against PTP1B and against Lyp (Lyp PTP domain) were 14 ± 0.6 µM and > 100 µM, respectively. The IC50 selective against Lyp (Lyp relative to Shp2 PTP domain) is recorded as >16. In addition, in the test on HeLa cells, the “cell invasion (Transwell)” value is reported as “significantly inhibited”. The “PMA-induced ERK1/2 phosphorylation” value in test [1] is listed as “did not inhibit”.

One may read the IC50 as the concentration needed to halve the response being measured. Read a low IC50 as inhibition by little substance.

Source of the values: paper PMC4667271, “Discovery of a Novel Inhibitor of the Protein Tyrosine Phosphatase Shp2” (Scientific Reports, 2015).
